Test results published in the NIST ThermoML archive (doi:10.1016/j.tca.2013.02.009).

Assay: molar heat capacity at constant pressure
Conditions: 101.33 kPa, Crystal, Large sample (1 g) DSC

[O-2].[O-2].[O-2].[Y+3].[Y+3] [yttrium oxide (Y2O3)]
Conditions	molar heat capacity at constant pressure [J/K/mol]
603 K	122.98
613 K	123.25
623 K	123.52
633 K	123.77
643 K	124
653 K	124.22
663 K	124.43
673 K	124.63
683 K	124.82
693 K	125
703 K	125.16
713 K	125.32
723 K	125.47
733 K	125.62
743 K	125.75
753 K	125.88
763 K	126
773 K	126.12
783 K	126.22
793 K	126.33
803 K	126.42
813 K	126.52
823 K	126.6
833 K	126.68
843 K	126.76
853 K	126.83
863 K	126.9
873 K	126.97
883 K	127.03
893 K	127.09
903 K	127.14
913 K	127.19
923 K	127.24
933 K	127.28
943 K	127.32
953 K	127.36
963 K	127.4
973 K	127.43
983 K	127.46
993 K	127.49
1003 K	127.52
1013 K	127.54
1023 K	127.57
1033 K	127.59
1043 K	127.61
1053 K	127.62
1063 K	127.64
1073 K	127.65
1083 K	127.66
1093 K	127.67
1103 K	127.68
1113 K	127.68
1123 K	127.68
1133 K	127.69
1143 K	127.69
1153 K	127.69
1163 K	127.7
1173 K	127.7
1183 K	127.7
1193 K	127.7
1203 K	127.69
